# Experimental data as given in patent US20260224589A1 (priority 2023, published 2026).
# Tested on: AsPC-1 cells
# Assay: phospho-ERK HTRF assay in AsPC-1 cells, 4 h treatment
# Type: cell-based
# Conditions: Homo sapiens, ASPC1; AsPC-1, 4h; Table 1b; read-out: PERK IC50 (AsPC-1, 4h)
row,Compound,IC50 [nM]
1,CN(C)C(=O)c1nn2c(c1Cl)CN(c1nc(OC[C@@]34CCCN3C/C(=C\F)C4)nc3c1CO[C@H](c1cc(N)cc(F)c1C(F)(F)F)C3)CCC2 [compound 410],< 10
2,CN(C)C(=O)c1cc2n(n1)CCCN(c1nc(OC[C@@]34CCCN3CC(=C(F)F)C4)nc3c1CO[C@H](c1cc(N)cc(Cl)c1C(F)(F)F)C3)C2 [compound 411],< 10
3,CN(C)C(=O)c1nn2c(c1F)CN(c1nc(OC[C@@]34CCCN3C/C(=C\F)C4)nc3c1CO[C@H](c1cc(N)cc(Cl)c1C(F)(F)F)C3)CCC2 [compound 412],< 10
4,CCN(C)C(=O)c1cc2n(n1)CCCN(c1nc(OC[C@@]34CCCN3C/C(=C\F)C4)nc3c1CO[C@H](c1cc(N)cc(C)c1C(F)(F)F)C3)C2 [compound 413],< 10
5,Cc1c(C(=O)N(C)C)nn2c1CN(c1nc(OC[C@@]34CCCN3C[C@H](F)C4)nc3c1CO[C@H](c1cc(N)cc(Cl)c1C(F)(F)F)C3)CCC2 [compound 414],< 10
6,Cc1cc(N)cc([C@@H]2Cc3nc(OC[C@@]45CCCN4C/C(=C\F)C5)nc(N4CCCn5nc(C(=O)N(C)C)c(C)c5C4)c3CO2)c1C(F)(F)F [compound 415],< 10
7,Cc1cc(N)cc([C@@H]2Cc3nc(OC[C@@]45CCCN4CC(=C(F)F)C5)nc(N4CCCn5nc(C(=O)N(C)C)c(C)c5C4)c3CO2)c1C(F)(F)F [compound 416],< 10
8,Cc1c(C(=O)N(C)C)nn2c1CN(c1nc(OC[C@@]34CCCN3C/C(=C\F)C4)nc3c1CO[C@H](c1cc(N)cc(F)c1C(F)(F)F)C3)CCC2 [compound 417],< 10
9,CC#Cc1cc(N)cc([C@@H]2Cc3nc(OC[C@@]45CCCN4C[C@H](F)C5)nc(N4CCCn5nc(C(=O)N(C)C)c(C)c5C4)c3CO2)c1C(F)(F)F [compound 419],< 10
10,CC#Cc1cc(N)cc([C@@H]2Cc3nc(OC[C@@]45CCCN4C/C(=C\F)C5)nc(N4CCCn5nc(C(=O)N6CCCC6)cc5C4)c3CO2)c1C(F)(F)F [compound 420],< 10
11,Cc1c(C(=O)N2CCCC2)nn2c1CN(c1nc(OC[C@@]34CCCN3C/C(=C\F)C4)nc3c1CO[C@H](c1cc(N)cc(Cl)c1C(F)(F)F)C3)CCC2 [compound 421],< 10
12,Nc1cc(Cl)c(C(F)(F)F)c([C@@H]2Cc3nc(OC[C@@]45CCCN4C/C(=C\F)C5)nc(N4CCCn5nc(C(=O)N6CCCC6)c(Cl)c5C4)c3CO2)c1 [compound 422],< 10
13,CC#Cc1cc(N)cc([C@@H]2Cc3nc(OC[C@@]45CCCN4C[C@H](F)C5)nc(N4CCCn5nc(C(=O)N(C)C)c(CC)c5C4)c3CO2)c1C(F)(F)F [compound 423],< 10
14,CC#Cc1cc(N)cc([C@@H]2Cc3nc(OC[C@@]45CCCN4C/C(=C\F)C5)nc(N4CCCn5nc(C(=O)N(C)C)c(CC)c5C4)c3CO2)c1C(F)(F)F [compound 424],< 10
15,CCc1c(C(=O)N(C)C)nn2c1CN(c1nc(OC[C@@]34CCCN3C/C(=C\F)C4)nc3c1CO[C@H](c1cc(N)cc(Cl)c1C(F)(F)F)C3)CCC2 [compound 425],< 10
16,CC#Cc1cc(N)cc([C@@H]2Cc3nc(OC[C@@]45CCCN4C/C(=C\F)C5)nc(N4CCCn5nc(C(=O)N(C)C)c(C)c5C4)c3CO2)c1C(F)(F)F [compound 426],< 10
17,CC#Cc1cc(N)cc([C@@H]2Cc3nc(OC[C@@]45CCCN4C/C(=C\F)C5)nc(N4CCCn5nc(C(=O)N(C)C)c(Cl)c5C4)c3CO2)c1C(F)(F)F [compound 427],< 10
18,CC#Cc1cc(N)cc([C@@H]2Cc3nc(OC[C@@]45CCCN4C/C(=C\F)C5)nc(N4CCCn5nc(C(=O)N(C)CC)cc5C4)c3CO2)c1C(F)(F)F [compound 428],< 10

row,Compound,IC50 [nM]
1,CC#Cc1cc(N)cc([C@@H]2Cc3nc(OC[C@@]45CCCN4C/C(=C\F)C5)nc(N4CCCn5nc(C(=O)N6CCCC6)c(C)c5C4)c3CO2)c1C(F)(F)F [compound 429],< 10
2,CC#Cc1cc(N)cc([C@@H]2Cc3nc(OC[C@@]45CCCN4C/C(=C\F)C5)nc(N4CCCn5nc(C(=O)N6CCCC6)c(Cl)c5C4)c3CO2)c1C(F)(F)F [compound 430],< 10
3,CCN(C)C(=O)c1nn2c(c1Cl)CN(c1nc(OC[C@@]34CCCN3C/C(=C\F)C4)nc3c1CO[C@H](c1c(F)c(N)cc(Cl)c1C(F)(F)F)C3)CCC2 [compound 432],< 10
4,CCN(C)C(=O)c1nn2c(c1Cl)CN(c1nc(OC[C@@]34CCCN3C[C@H](F)C4)nc3c1CO[C@H](c1c(F)c(N)cc(Cl)c1C(F)(F)F)C3)CCC2 [compound 433],< 10
5,CCN(CC)C(=O)c1nn2c(c1Cl)CN(c1nc(OC[C@@]34CCCN3C/C(=C\F)C4)nc3c1CO[C@H](c1c(F)c(N)cc(Cl)c1C(F)(F)F)C3)CCC2 [compound 434],< 10
6,CC#Cc1cc(N)c(F)c([C@@H]2Cc3nc(OC[C@@]45CCCN4C[C@H](F)C5)nc(N4CCCn5nc(C(=O)N(C)C)c(Cl)c5C4)c3CO2)c1C(F)(F)F [compound 435],< 10
7,CN(C)C(=O)c1nn2c(c1Cl)CN(c1nc(OC[C@@]34CCCN3C/C(=C\F)C4)nc3c1CO[C@H](c1c(F)c(N)cc(Cl)c1Cl)C3)CCC2 [compound 436],< 10
8,CC#Cc1cc(N)c(F)c([C@@H]2Cc3nc(OC[C@@]45CCCN4C/C(=C\F)C5)nc(N4CCCn5nc(C(=O)N(C)C)c(Cl)c5C4)c3CO2)c1C(F)(F)F [compound 437],< 10
9,CN(C)C(=O)c1nn2c(c1Cl)CN(c1nc(OC[C@@]34CCCN3C/C(=C\F)C4)nc3c1COC(c1cc(N)cc(Cl)c1C1CC1)C3)CCC2 (some centres unmarked) [compound 438],< 10
10,CN(C)C(=O)c1nn2c(c1Cl)CN(c1nc(OC[C@@]34CCCN3C/C(=C\F)C4)nc3c1CO[C@H](c1cc(N)cc(Cl)c1C1CC1)C3)CCC2 [compound 439],< 10
11,Cc1c(C(=O)N(C)C)nn2c1CN(c1nc(OC[C@@]34CCCN3C/C(=C\F)C4)nc3c1CO[C@H](c1c(F)c(N)cc(Cl)c1C(F)(F)F)C3)CCC2 [compound 440],< 10
12,Cc1c(C(=O)N(C)C)nn2c1CN(c1nc(OC[C@@]34CCCN3C[C@H](F)C4)nc3c1CO[C@H](c1c(F)c(N)cc(Cl)c1C(F)(F)F)C3)CCC2 [compound 441],< 10
13,Cc1c(C(=O)N(C)C)nn2c1CN(c1nc(OC[C@@]34CCCN3C/C(=C\F)C4)nc3c1CO[C@H](c1c(F)c(N)cc(Cl)c1Cl)C3)CCC2 [compound 442],< 10
14,CC#Cc1cc(N)c(F)c([C@@H]2Cc3nc(OC[C@@]45CCCN4C[C@H](F)C5)nc(N4CCCn5nc(C(=O)N(C)C)c(C)c5C4)c3CO2)c1C(F)(F)F [compound 444],< 10
15,Cc1c(C(=O)N(C)C)nn2c1CN(c1nc(OC[C@]34CCCN3C[C@@H](C=C(F)F)C4)nc3c1CO[C@H](c1cc(N)cc(Cl)c1C(F)(F)F)C3)CCC2 [compound 447],< 10
16,CON(C)C(=O)c1nn2c(c1Cl)CN(c1nc(OC[C@@]34CCCN3C[C@H](F)C4)nc3c1CO[C@H](c1cc(N)cc(Cl)c1C(F)(F)F)C3)CCC2 [compound 448],< 10
17,CON(C)C(=O)c1nn2c(c1Cl)CN(c1nc(OC[C@@]34CCCN3C/C(=C\F)C4)nc3c1COC(c1cc(N)cc(Cl)c1C(F)(F)F)C3)CCC2 (some centres unmarked) [compound 449],< 10
